Calls of active or inactive are those of the source. No cut-off for these calls is given here.
How the values were obtained:
[1] = system: HT-1080; test: Cytotoxicity against human HT-1080 cells incubated for 48 hrs by CCK-8 assay; type: functional, cell-based; settings: HT-1080, 48 h
[2] = Cytotoxicity against human HPNE cells; type: toxicity, cell-based
[3] = Selectivity index, ratio of IC50 for human HPNE cells to IC50 for human HT-1080 cells
[4] = system: HT-1080; test: Induction of ferroptosis in human HT-1080 cells assessed as decrease in mitochondrial crests at 4 uM after 24 hrs by transmission electron microscope analysis; type: functional, cell-based
[5] = system: HT-1080; test: Induction of ferroptosis in human HT-1080 cells assessed as appearance of broken outer membrane of mitochondria at 4 uM after 24 hrs by transmission electron microscope analysis; type: functional, cell-based
[6] = molecular target: T1, Phospholipid hydroperoxide glutathione peroxidase GPX4 (Homo sapiens) (UniProt P36969); test: Induction of GPX4 degradation in human HT-1080 cells after 24 hrs by Western blotting assay; type: cell-based; settings: dose 1-4 µM
T1 sequence (whole entry): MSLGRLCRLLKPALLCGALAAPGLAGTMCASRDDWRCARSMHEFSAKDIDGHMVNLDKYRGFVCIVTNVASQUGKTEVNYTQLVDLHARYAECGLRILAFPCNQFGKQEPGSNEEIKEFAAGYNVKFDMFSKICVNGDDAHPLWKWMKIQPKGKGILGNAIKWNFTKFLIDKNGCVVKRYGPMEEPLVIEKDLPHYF

[7] = system: HT-1080; test: Induction of apoptosis in human HT-1080 cells assessed as viable cells at 2 uM incubated for 24 hrs by Annexin-V FITC/PI staining based flow cytometry analysis (reference value: 92.5%); type: functional; settings: read-out: Activity
[8] = system: HT-1080; test: Induction of apoptosis in human HT-1080 cells assessed as necrotic cells at 2 uM incubated for 24 hrs by Annexin-V FITC/PI staining based flow cytometry analysis (reference value: 3.98%); type: functional
[9] = system: HT-1080; test: Induction of apoptosis in human HT-1080 cells assessed as late apoptotic cells at 4 uM incubated for 24 hrs by Annexin-V FITC/PI staining based flow cytometry analysis (reference value: 1.66%); type: functional
[10] = system: HT-1080; test: Induction of apoptosis in human HT-1080 cells assessed as necrotic cells at 4 uM incubated for 24 hrs by Annexin-V FITC/PI staining based flow cytometry analysis (reference value: 3.98%); type: functional
[11] = system: HT-1080; test: Antitumor activity against human HT-1080 cells xenografted in BALB/c nude mouse assessed as tumor growth inhibition at 40 mg/kg, ip administered once daily for 19 days and measured every 2 days; type: functional; settings: HT-1080, 456 h, time 19 day, read-out: TGI
[12] = system: HT-1080; test: Antitumor activity against human HT-1080 cells xenografted in ip dosed BALB/c nude mouse assessed as tumor growth inhibition administered once daily for 19 days and measured every 2 days; type: functional, organism-based; settings: dose 20-40 mg/kg, time 19.0 day
[13] = system: HT-1080; test: Antitumor activity against human HT-1080 cells xenografted in ip dosed BALB/c nude mouse assessed as reduction in Bcl-2 level administered once daily for 19 days and measured every 2 days by immunohistochemistry assay; type: functional, organism-based; settings: dose 20-40 mg/kg, time 19.0 day
[14] = system: HT-1080; test: Antitumor activity against human HT-1080 cells xenografted in ip dosed BALB/c nude mouse assessed as increase in 4-HNE level administered once daily for 19 days and measured every 2 days by immunohistochemistry assay; type: functional, organism-based; settings: dose 20-40 mg/kg, time 19.0 day
[15] = Toxicity in BALB/c nude mouse xenografted with human HT-1080 cells assessed as change in liver morphology at 20 to 40 mg/kg, ip administered once daily for 19 days and measured every 2 days by H and E staining based assay; type: organism-based; settings: in vivo, 456 h, dose 20-40 mg/kg, time 19 day
[16] = Toxicity in BALB/c nude mouse xenografted with human HT-1080 cells assessed as change in lung morphology at 20 to 40 mg/kg, ip administered once daily for 19 days and measured every 2 days by H and E staining based assay; type: organism-based; settings: in vivo, 456 h, dose 20-40 mg/kg, time 19 day
[17] = system: AMG 510-resistant MIA PaCa-2; test: Cytotoxicity against human AAMG 510-resistant MIA PaCa-2 cells upto 5 uM; type: functional, cell-based
[18] = Potentiation of AMG510 induced cytotoxicity in human AMG 510-resistant MIA PaCa-2 cells assessed as reduction in cell survival rate at 1 uM in presence of 10 nM AMG510 (reference value: 90%); type: functional

## O=C(CCCCCNC1=CC(=O)c2ccccc2C1=O)Nc1ccc(N(C(=O)CCl)C(C(=O)NCCc2ccccc2)c2cccs2)cc1 (stereo not drawn)
[1]
  IC50: 1.6 µM
[2]
  IC50: 9.55 µM
[3]
  Ratio IC50: 5.96
[4]
  Activity: Active
[5]
  Activity: Active
[6]
  Activity: Dose-Dependent Effect
[7]
  viability at 2 µM: 82.7%
[8]
  Activity: 4.02%
[9]
  Activity: 7.99%
[10]
  Activity: 3.03%
[11]
  inhibition in vivo at 40 mg/kg: 63%
[12]
  Activity: Dose-Dependent Effect
[13]
  Activity: Dose-Dependent Effect
[14]
  Activity: Dose-Dependent Effect
[15]
  Activity: Non-Toxic
[16]
  Activity: Non-Toxic
[17]
  Activity: inactive
[18]
  Activity: ~60%
